Results as given in patent US6743917B2, “Camptothecin analogs and methods of preparation thereof” (University of Pittsburgh, priority 1993, dated 2004).
Where two headings read alike, the source gives them in different places.

Key:
[1] = system: 833K (human teratocarcinoma) cells; experiment: Cytotoxicity assay, 833K cells (sulforhodamine B protein content); type: cell-based; details: Homo sapiens; 833K cells, sulforhodamine B; read-out: Inhibition of cancer cell growth IC50, 833K
Method: (§1) Cultures were fixed with trichloroacetic acid and then stained for 30 minutes with 0.4% sulforhodamine B dissolved in 1% acetic acid. Unbound dye was removed by acetic acid washes, and the protein-bound dye was extracted with an unbuffered Tris base [tris(hydroxy-methyl)aminomethan] for determination of absorbance at 570 nm in a 96-well microplate reader. The experiments were carried out in duplicate using five to six concentrations of the drugs tested. Data were analyzed via computer software.

[2] = system: DC-3F (hamster lung) cells; experiment: Cytotoxicity assay, DC-3F cells (sulforhodamine B protein content); type: cell-based; details: Mesocricetus auratus, DC3F; DC-3F cells, sulforhodamine B; read-out: Inhibition of cancer cell growth IC50, DC-3F
Method: as §1

[3] = system: HL-60 (human promyelocytic leukemic) cells; experiment: Cytotoxicity assay, HL-60 cells (XTT-microculture tetrazolium assay); type: cell-based; details: Homo sapiens; HL-60 cells, 72 hr incubation, XTT; read-out: Inhibition of cancer cell growth IC50, HL-60
Method: The camptothecin derivatives were evaluated for their cytotoxic effects on the growth of HL-60 (human promyelocytic leukemic), 833K (human teratocarcinoma) and DC-3F (hamster lung) cells in vitro. The cells were cultured in an initial density of […]. They were maintained in a 5% CO2 humidified atmosphere at 37° C. in RPMI-1640 media (GIBCO-BRL Grand Island, N.Y.) containing penicillin 100 μ/ml)/streptomycin (100 ^μg/ml) (GIBCO-BRL) and 10% heat inactivated fetal bovine serum. The assay was performed in duplicate in 96-well microplates. The cytotoxicity of the compounds toward HL-60 cells following 72 hr incubation was determined by XTT-microculture tetrazolium assay. Scudiero, D. A., et al., Cancer Res., 48, 4827 (1988), the disclosure of which is incorporated herein by reference. 2′, 3′-bis(-methoxy-4-nitro-5-sulfheny)-5-[(phenylamino)carbonyl]-2H-tetrazolium hydroxide (XTT) was prepared at 1 mg/ml in prewarmed (37° C.) medium without serum. Phenazine methosulfate (PMS) and fresh XTT were mixed together to obtain 0.075 mM PMS-XTT solution (25 ^μl of the stock 5 mM PMS was added per 5 ml of 1 mg/ml XTT). Fifty ^μl of this mixture was added to each well of the cell culture at the end of 72 hr incubation. After incubation at 37° C. for 4 hr., absorbance at 450 nm and 630 nm was measured with a microplate reader (EL340, Bio-Tek Instruments, Inc., Winooski, Vt.).

Lewis lung carcinoma = experiment: Antitumor activity in vivo, Lewis lung carcinoma; details: B6D2F1 mice, intraperitoneously twice daily for five days
Method: (§2) Antitumor activities of camptothecin derivatives were tested in B6D2F1 mice bearing sarcoma-180 or Lewis lung murine solid tumor. For S-180, 3×10^6 cells were innoculated subcutaneously on […]. Antitumor treatment started on day 1 intraperitoneously twice daily for five days. Tumor volumes on day 7 and day 14 were measured. Average tumor volumes were described as the ratio of treated versus untreated control (T/C). The control (treated with DMSO vehicle only) tumor volumes for day 7 and day 14 were 0.11 cm^3 and 0.61 cm^3, respectively. The T/C camptothecin is designated with “+++.” An increment or decrement of 10% as compared to the camptothecin T/C on day 14 at 2 mg/kg dosage is designated with increase or decrease of one “+” unit, respectively.
For Lewis lung carcinoma, tumor cells (1×10^6) were inoculated subcutaneously on day 0 and treatment started on day 1, intraperitoneously twice daily for five days. The grading of effects was as described above.

[4] = Kinetics of lactone ring opening in whole human blood (HPLC);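 note: hydrolytic opening of the camptothecin lactone ring followed over time by quantitative C18 reversed-phase HPLC in human whole blood at physiological temperature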
[5] = earlier studies; cited from earlier work
[6] = cited from earlier work
[7] = Equilibrium binding to DMPC small unilamellar vesicles (fluorescence anisotropy titration); details: for KDMPC overall association constant: PBS buffer at PH 7.4 and 37° C.; for K value for DMPC, fold greater than camptothecin: relative to camptothecin
[8] = system: MDA-MB-435 tumorigenic metastatic human breast cancer cells; experiment: cells; type: cell-based; details: for IC50: Homo sapiens, MDA-MB-435, 72 h, read-out: IC50 (w/o HSA)
Method: Cells. […] The cells were exposed to a range of drug concentrations for 72 hr exposure periods and then viability was assessed using a sulphorrhodamine B (SRB) assay. SRB assays were performed using a standard assay.
Sulphorhodamine B (SRB) assay was used. This assay measures the total protein levels in the living cells. Proteins from dead cells are lysed and removed in the washing step before TCA fixation. However, it is possible that cells in the early stage of death still have their membrane integrity and therefore retain the protein contents inside. As a result, the optical density at 490 nm can sometimes be overestimated and the cytotoxicity underestimated. […] The SRB assay is now a well regarded assay and was recently approved by NCI as a standard assay for anticancer drug screening.

in vitro = details: human
[9] = target: human serum albumin (HSA) (Homo sapiens, UniProt P02768); details: PBS at pH 7.4; cited from earlier work
Sequence of human serum albumin (HSA) (P02768 25-609): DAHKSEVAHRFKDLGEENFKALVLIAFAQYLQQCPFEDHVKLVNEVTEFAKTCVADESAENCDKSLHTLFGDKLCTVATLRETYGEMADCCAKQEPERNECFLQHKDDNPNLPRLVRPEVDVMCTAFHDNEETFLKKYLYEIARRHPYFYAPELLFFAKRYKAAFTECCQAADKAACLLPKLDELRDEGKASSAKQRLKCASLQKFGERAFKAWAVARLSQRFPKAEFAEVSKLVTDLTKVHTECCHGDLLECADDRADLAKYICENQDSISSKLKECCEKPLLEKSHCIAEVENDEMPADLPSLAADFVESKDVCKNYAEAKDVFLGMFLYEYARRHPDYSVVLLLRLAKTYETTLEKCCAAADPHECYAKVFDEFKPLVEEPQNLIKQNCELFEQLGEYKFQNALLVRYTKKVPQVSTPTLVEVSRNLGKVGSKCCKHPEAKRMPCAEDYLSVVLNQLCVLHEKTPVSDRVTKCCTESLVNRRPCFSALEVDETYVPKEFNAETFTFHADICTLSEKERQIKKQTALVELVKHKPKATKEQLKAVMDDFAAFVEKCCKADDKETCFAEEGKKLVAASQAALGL

[10] = Kinetics of lactone ring opening in PBS buffer (HPLC); type: physicochemical; details: for % Lactone at Equilibrium: PBS; for half-life: buffer, pH 7.4
Method: Kinetics of Lactone Ring Opening. […] Mi and Burke (1994), supra.
FIG. 21 summarizes the stability of DB172 in phosphate buffered saline (PBS) buffer, pH 7.4, at physiological temperature. Shown in the figure are plots of lactone fraction as a function of time for DB172 at different concentrations. Drug was added to solution from a concentrated DMSO stock solution such that the volumes of DMSO were very small (less than 0.5%) relative to the volume of water. […] At the more dilute drug concentrations the drug hydrolyzes as previously observed for other camptothecins containing the ^α-hydroxy-^δ-lactone moiety.

[11] = whole human blood, earlier studies; cited from earlier work
[12] = Equilibrium binding to DMPG small unilamellar vesicles (fluorescence anisotropy titration); details: PBS buffer at PH 7.4 and 37° C.
[13] = Kinetics of lactone ring opening in PBS containing HSA (HPLC); details: for % Lactone at Equilibrium / t1/2: HSA (PBS containing 30 mg/ml HSA)
[14] = Self-association in aqueous solution (fluorescence intensity with time); type: physicochemical; details: lactone drug forms added to solution, time=0
Method: FIG. 22 summarizes the dependence of the fluorescence intensity of DB172 as a function of time and pH. In these experiments DB172 is added to solution as the lactone form. At low pH where the drug remains in the lactone form, the change in intensity with time is the lowest. At pH 10, where the conditions are such that the lactone more readily hydrolyzes and forms carboxylate, a significant change in fluorescence intensity is observed. It appears that a pH 10 nonfluorescent micellular aggregates composed of lactone disassemble and form open-ring carboxylate forms that tend to exist in solution as monomeric fluorescent species.
FIG. 23 explores the fluorescence intensity of DB172 as a function of concentration. Following the addition of low concentration of lactone drug to solution, the change in fluorescence signal is the greatest whereas at high drug concentration (10 ^μM) the fluorescence intensity changes are minimal. It is believed that a low concentration the micellular aggregates of DB172 displaying reduced fluorescence can disassemble and form fluorescent carboxylate species, but at higher drug concentration the equilibrium favors that the agent remains in the aggregated or reduced fluorescence state. […] Once again this decrease in fluorescence that occurs at reduced pH appear to be due to the formation of lactone aggregates of reduced fluorescence quantum yield.
FIGS. 21 through 24 are consistent with the unusual ability of DB172 lactone to self-associate and form micelles at micromolar drug concentrations. The micellular DB172 aggregates display a reduced fluorescence. If conditions allow for hydrolysis to occur such that carboxylate forms, there is an increase in the fluorescence intensity of the sample. FIG. 25 compares the relative change in the fluorescence emission of a sample following addition of lactone drug forms to solution. In these experiments the values for each drug are normalized to a value of 1 at time equals to zero, and the ability of the various analogs to disassociate in the event the drugs are aggregated at time=0 is monitored with time. […]

[15] = human
sarcoma-180 = experiment: Antitumor activity in vivo, sarcoma-180; details: B6D2F1 mice, intraperitoneously twice daily for five days, several equivalent doses
Method: as §2

[16] = Whole Blood, physiological temperature
[17] = human plasma, pH 7.4 and 37° C.

| SMILES | IC50 [1] [nM] | IC50 [2] [nM] | IC50 [3] [nM] | % Lactone at Equilibrium [4, 16] | KDMPC overall association constant [7] [M⁻¹] | IC50 [8] [nM] | half-life (in vitro; whole blood) [min] | % Lactone at Equilibrium [10] | KDMPG overall association constant [12] [M⁻¹] | % Lactone at Equilibrium [13] | t1/2 [13] [min] | K value for DMPC, fold greater than camptothecin [7] [fold] | self-association / aggregation state in solution [14] | half-life [10] [min] | other results |
| --- | --- | --- | --- | --- | --- | --- | --- | --- | --- | --- | --- | --- | --- | --- | --- |
| CCC1(O)C(=O)OCc2c1cc1n(c2=O)Cc2c-1nc1cc(F)ccc1c2[Si](C)(C)C (stereo in doubt) [Example 7, (20S)-11-fluoro-7-trimethylsilylcamptothecin] | 0.92 | 2 | 0.75 |  |  |  |  |  |  |  |  |  |  |  | similar antitumor effect (tumor volume reduction) to camptothecin at x-fold lower doses (Lewis lung carcinoma): 4 fold |
| CC[C@@]1(O)C(=O)OCc2c1cc1n(c2=O)Cc2cc3c(N)cccc3nc2-1 [9-aminocamptothecin] |  |  |  | < 0.3% |  |  |  |  |  |  |  |  |  |  | fraction hydrolyzed in PBS solution containing HSA [5]: > 97%; fraction converted to carboxylate in plasma ([6]; plasma): > 99.5% |
| CC[C@@]1(O)C(=O)OCc2c1cc1n(c2=O)Cc2cc3ccccc3nc2-1 [CPT, (20S)-Camptothecin, reference compound] | 10 | 6 to 9 | 5 |  | 100 | 8 | 21.6 | 17 +/− 2.0% | 100 | <0.5% | 11.9 ± 0.3 |  |  |  | % Lactone at Equilibrium ([4]; Whole Blood, physiological temperature, listed as Camptothecin): 5.3 +/− 0.6%; % Lactone at Equilibrium ([4]; Whole Blood, physiological temperature, listed as camptothecin): 5.3%; lactone level at equilibrium in whole blood, fold greater than 9-aminocamptothecin ([4]; relative to 9-aminocamptothecin): approximately 10 fold; affinity of HSA for the carboxylate form, fold higher than for the lactone form [9]: 200 fold; t1/2 of lactone in whole blood [11]: 22 min; % lactone at equilibrium in human plasma [6, 17]: 0.2%; t1/2 of lactone opening in human plasma [6, 17]: 11 min |
| CC[C@@]1(O)C(=O)OCc2c1cc1n(c2=O)Cc2c-1nc1ccccc1c2CC[Si](C)(C)C [DB-172, (20S)-7-[(2-Trimethylsilyl)ethyl]camptothecin] |  |  |  | 24.1 +/− 2.6% | 10500 |  |  |  | 10600 | 4.3 +/− 1.0% | 86.1 ± 10.3 | ~100 | self-associates to an exceptionally high degree |  | t1/2 [4, 16]: 106.6 ± 10.8 min; lactone ring stability at high drug concentrations ([10]; PBS buffer, pH 7.4, physiological temperature): marked stabilization of the lactone ring |
| CC[C@@]1(O)C(=O)OCc2c1cc1n(c2=O)Cc2c-1nc1ccc(N)cc1c2CC[Si](C)(C)C [DB-173] |  |  |  |  | 5800 | 4 | 69 | 11.9 +/− 0.3% | 5800 |  |  | ~58 | much more likely to be found in solution as monomeric drug relative to DB172 | 45.3 | effect of 1 mg/ml HSA on the cytotoxic activity ([8]; MDA-MB-435 cells): no effect; half-life ([13]; human, PBS containing 30 mg/ml HSA, pH 7.4): 49 min |
| CC[C@@]1(O)C(=O)OCc2c1cc1n(c2=O)Cc2c-1nc1ccccc1c2[Si](C)(C)C [Example 1, (20S)-7-trimethylsilylcamptothecin] | 5.6 | 4.2 | 3.8 |  |  |  |  | 11.1 +/− 0.1% |  |  |  |  |  | 34.6 | % Lactone at Equilibrium [15]: 23.7 +/− 0.0%; half-life (in vitro; blood): 54.6 min; activity against sarcoma 180 compared with camptothecin (tumor volume reduction) (sarcoma-180): better activity than camptothecin |
